# Experimental data reported in PubChem BioAssay (NCI).
#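 Each compound was tested at five concentrations against cells in 96-well plates for 48 hours. Abbreviation: GI50, concentration required for 50% inhibition of growth. TGI: concentration producing complete growth inhibition.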
# Experiments:
# Experiment in all cases: NCI-60 cell line screen, 48 h
# SNB-75 CNS = system: SNB-75 CNS
# CCRF-CEM leukemia = system: CCRF-CEM leukemia
# SF-295 CNS = system: SF-295 CNS
# HOP-62 NSCLC = system: HOP-62 NSCLC
# NCI/ADR-RES ovarian = system: NCI/ADR-RES ovarian
# A498 renal = system: A498 renal
# NCI-H460 lung = system: NCI-H460 lung
# ACHN renal = system: ACHN renal
# MDA-MB-231 breast = system: MDA-MB-231 breast
# RXF 393 renal = system: RXF 393 renal
# HS 578T breast = system: HS 578T breast
# OVCAR-4 ovarian = system: OVCAR-4 ovarian
# MOLT-4 leukemia = system: MOLT-4 leukemia
# OVCAR-3 ovarian = system: OVCAR-3 ovarian
# RPMI-8226 leukemia = system: RPMI-8226 leukemia
# OVCAR-8 ovarian = system: OVCAR-8 ovarian
# SF-268 CNS = system: SF-268 CNS
# SF-539 CNS = system: SF-539 CNS
# SK-MEL-5 melanoma = system: SK-MEL-5 melanoma
# LOX IMVI melanoma = system: LOX IMVI melanoma
# KM12 colon = system: KM12 colon
# HCT-15 colon = system: HCT-15 colon
# NCI-H522 lung = system: NCI-H522 lung
# SW-620 colon = system: SW-620 colon
# SK-OV-3 ovarian = system: SK-OV-3 ovarian
# M14 melanoma = system: M14 melanoma
# SK-MEL-2 melanoma = system: SK-MEL-2 melanoma
# 786-0 renal = system: 786-0 renal
# A549 NSCLC = system: A549 NSCLC
# HOP-92 NSCLC = system: HOP-92 NSCLC
# PC-3 prostate = system: PC-3 prostate
# MALME-3M melanoma = system: MALME-3M melanoma
# HL-60(TB) leukemia = system: HL-60(TB) leukemia
# SN12C renal = system: SN12C renal
# IGROV1 ovarian = system: IGROV1 ovarian
# OVCAR-5 ovarian = system: OVCAR-5 ovarian
# CAKI-1 renal = system: CAKI-1 renal
# K-562 leukemia = system: K-562 leukemia
# DU-145 prostate = system: DU-145 prostate
# NCI-H226 lung = system: NCI-H226 lung
# EKVX NSCLC = system: EKVX NSCLC
# SR leukemia = system: SR leukemia
# UACC-257 melanoma = system: UACC-257 melanoma
# MCF7 breast = system: MCF7 breast
# NCI-H23 lung = system: NCI-H23 lung
# SK-MEL-28 melanoma = system: SK-MEL-28 melanoma
# U251 CNS = system: U251 CNS
# COLO 205 colon = system: COLO 205 colon
# T-47D breast = system: T-47D breast
# UACC-62 melanoma = system: UACC-62 melanoma
# HCT-116 colon = system: HCT-116 colon
# BT-549 breast = system: BT-549 breast
# MDA-MB-435 = system: MDA-MB-435
# HT29 colon = system: HT29 colon
# SNB-19 CNS = system: SNB-19 CNS
# TK-10 renal = system: TK-10 renal
# UO-31 renal = system: UO-31 renal
smiles,measurement,setting,value
O=C(O)C1CC[N-]CC1.O=C(O)C1CC[N-]CC1.[NH2-].[NH2-].[Pt+4],GI50,SNB-75 CNS,> 100 µM
same,TGI,SNB-75 CNS,> 100 µM
same,GI50,CCRF-CEM leukemia,> 100 µM
same,TGI,CCRF-CEM leukemia,> 100 µM
same,GI50,SF-295 CNS,> 100 µM
same,TGI,SF-295 CNS,> 100 µM
same,GI50,HOP-62 NSCLC,> 100 µM
same,TGI,HOP-62 NSCLC,> 100 µM
same,GI50,NCI/ADR-RES ovarian,> 100 µM
same,TGI,NCI/ADR-RES ovarian,> 100 µM
same,GI50,A498 renal,> 100 µM
same,TGI,A498 renal,> 100 µM
same,GI50,NCI-H460 lung,> 100 µM
same,TGI,NCI-H460 lung,> 100 µM
same,GI50,ACHN renal,> 100 µM
same,TGI,ACHN renal,> 100 µM
same,GI50,MDA-MB-231 breast,> 100 µM
same,TGI,MDA-MB-231 breast,> 100 µM
same,GI50,RXF 393 renal,> 100 µM
same,TGI,RXF 393 renal,> 100 µM
same,GI50,HS 578T breast,> 100 µM
same,TGI,HS 578T breast,> 100 µM
same,GI50,OVCAR-4 ovarian,> 100 µM
same,TGI,OVCAR-4 ovarian,> 100 µM
same,GI50,MOLT-4 leukemia,> 100 µM
same,TGI,MOLT-4 leukemia,> 100 µM
same,GI50,OVCAR-3 ovarian,> 100 µM
same,TGI,OVCAR-3 ovarian,> 100 µM
same,GI50,RPMI-8226 leukemia,> 100 µM
same,TGI,RPMI-8226 leukemia,> 100 µM
same,GI50,OVCAR-8 ovarian,> 100 µM
same,TGI,OVCAR-8 ovarian,> 100 µM
same,GI50,SF-268 CNS,> 100 µM
same,TGI,SF-268 CNS,> 100 µM
same,GI50,SF-539 CNS,> 100 µM
same,TGI,SF-539 CNS,> 100 µM
same,GI50,SK-MEL-5 melanoma,> 100 µM
same,TGI,SK-MEL-5 melanoma,> 100 µM
same,GI50,LOX IMVI melanoma,> 100 µM
same,TGI,LOX IMVI melanoma,> 100 µM
same,GI50,KM12 colon,> 100 µM
same,TGI,KM12 colon,> 100 µM
same,GI50,HCT-15 colon,> 100 µM
same,TGI,HCT-15 colon,> 100 µM
same,GI50,NCI-H522 lung,> 100 µM
same,TGI,NCI-H522 lung,> 100 µM
same,GI50,SW-620 colon,> 100 µM
same,TGI,SW-620 colon,> 100 µM
same,GI50,SK-OV-3 ovarian,> 100 µM
same,TGI,SK-OV-3 ovarian,> 100 µM
same,GI50,M14 melanoma,> 100 µM
same,TGI,M14 melanoma,> 100 µM
same,GI50,SK-MEL-2 melanoma,> 100 µM
same,TGI,SK-MEL-2 melanoma,> 100 µM
same,GI50,786-0 renal,> 100 µM
same,TGI,786-0 renal,> 100 µM
same,GI50,A549 NSCLC,> 100 µM
same,TGI,A549 NSCLC,> 100 µM
same,GI50,HOP-92 NSCLC,> 100 µM
same,TGI,HOP-92 NSCLC,> 100 µM
same,GI50,PC-3 prostate,> 100 µM
same,TGI,PC-3 prostate,> 100 µM
same,GI50,MALME-3M melanoma,> 100 µM
same,TGI,MALME-3M melanoma,> 100 µM
same,GI50,HL-60(TB) leukemia,> 100 µM
same,TGI,HL-60(TB) leukemia,> 100 µM
same,GI50,SN12C renal,> 100 µM
same,TGI,SN12C renal,> 100 µM
same,GI50,IGROV1 ovarian,> 100 µM
same,TGI,IGROV1 ovarian,> 100 µM
same,GI50,OVCAR-5 ovarian,> 100 µM
same,TGI,OVCAR-5 ovarian,> 100 µM
same,GI50,CAKI-1 renal,> 100 µM
same,TGI,CAKI-1 renal,> 100 µM
same,GI50,K-562 leukemia,> 100 µM
same,TGI,K-562 leukemia,> 100 µM
same,GI50,DU-145 prostate,> 100 µM
same,TGI,DU-145 prostate,> 100 µM
same,GI50,NCI-H226 lung,> 100 µM
same,TGI,NCI-H226 lung,> 100 µM
same,GI50,EKVX NSCLC,> 100 µM
same,TGI,EKVX NSCLC,> 100 µM
same,GI50,SR leukemia,> 100 µM
same,TGI,SR leukemia,> 100 µM
same,GI50,UACC-257 melanoma,> 100 µM
same,TGI,UACC-257 melanoma,> 100 µM
same,GI50,MCF7 breast,> 100 µM
same,TGI,MCF7 breast,> 100 µM
same,GI50,NCI-H23 lung,> 100 µM
same,TGI,NCI-H23 lung,> 100 µM
same,GI50,SK-MEL-28 melanoma,> 100 µM
same,TGI,SK-MEL-28 melanoma,> 100 µM
same,GI50,U251 CNS,> 100 µM
same,TGI,U251 CNS,> 100 µM
same,GI50,COLO 205 colon,> 100 µM
same,TGI,COLO 205 colon,> 100 µM
same,GI50,T-47D breast,> 100 µM
same,TGI,T-47D breast,> 100 µM
same,GI50,UACC-62 melanoma,> 100 µM
same,TGI,UACC-62 melanoma,> 100 µM
same,GI50,HCT-116 colon,> 100 µM
same,TGI,HCT-116 colon,> 100 µM
same,GI50,BT-549 breast,> 100 µM
same,TGI,BT-549 breast,> 100 µM
same,GI50,MDA-MB-435,> 100 µM
same,TGI,MDA-MB-435,> 100 µM
same,GI50,HT29 colon,> 100 µM
same,TGI,HT29 colon,> 100 µM
same,GI50,SNB-19 CNS,> 100 µM
same,TGI,SNB-19 CNS,> 100 µM
same,GI50,TK-10 renal,> 100 µM
same,TGI,TK-10 renal,> 100 µM
O=C(O)c1cc(-c2ccc(-c3ccccc3)cc2)nc2cc3ccccc3cc12,TGI,SNB-75 CNS,69.9 µM
same,TGI,CCRF-CEM leukemia,39.8 µM
same,TGI,SF-295 CNS,> 100 µM
same,TGI,HOP-62 NSCLC,> 100 µM
same,TGI,NCI/ADR-RES ovarian,> 100 µM
same,TGI,A498 renal,> 100 µM
same,TGI,NCI-H460 lung,> 100 µM
same,TGI,ACHN renal,> 100 µM
same,TGI,MDA-MB-231 breast,> 100 µM
same,TGI,RXF 393 renal,> 100 µM
same,TGI,HS 578T breast,> 100 µM
same,TGI,OVCAR-4 ovarian,> 100 µM
same,TGI,MOLT-4 leukemia,> 100 µM
same,TGI,OVCAR-3 ovarian,> 100 µM
same,TGI,RPMI-8226 leukemia,> 100 µM
same,TGI,OVCAR-8 ovarian,> 100 µM
same,TGI,SF-268 CNS,> 100 µM
same,TGI,SF-539 CNS,> 100 µM
same,TGI,SK-MEL-5 melanoma,> 100 µM
same,TGI,LOX IMVI melanoma,> 100 µM
same,TGI,KM12 colon,> 100 µM
same,TGI,HCT-15 colon,> 100 µM
same,TGI,NCI-H522 lung,> 100 µM
same,TGI,SW-620 colon,> 100 µM
same,TGI,SK-OV-3 ovarian,> 100 µM
same,TGI,M14 melanoma,> 100 µM
same,TGI,SK-MEL-2 melanoma,> 100 µM
same,TGI,786-0 renal,67.6 µM
same,TGI,A549 NSCLC,> 100 µM
same,TGI,HOP-92 NSCLC,82.2 µM
same,TGI,PC-3 prostate,> 100 µM
same,TGI,MALME-3M melanoma,> 100 µM
same,TGI,HL-60(TB) leukemia,> 100 µM
same,TGI,SN12C renal,> 100 µM
same,TGI,IGROV1 ovarian,> 100 µM
same,TGI,OVCAR-5 ovarian,> 100 µM
same,TGI,CAKI-1 renal,> 100 µM
same,TGI,K-562 leukemia,> 100 µM
same,TGI,DU-145 prostate,> 100 µM
same,TGI,NCI-H226 lung,> 100 µM
same,TGI,EKVX NSCLC,> 100 µM
same,TGI,SR leukemia,> 100 µM
same,TGI,UACC-257 melanoma,> 100 µM
same,TGI,UO-31 renal,> 100 µM
same,TGI,MCF7 breast,> 100 µM
same,TGI,NCI-H23 lung,> 100 µM
same,TGI,SK-MEL-28 melanoma,> 100 µM
same,TGI,U251 CNS,> 100 µM
same,TGI,COLO 205 colon,> 100 µM
same,TGI,T-47D breast,> 100 µM
same,TGI,UACC-62 melanoma,> 100 µM
same,TGI,HCT-116 colon,> 100 µM
same,TGI,BT-549 breast,> 100 µM
same,TGI,MDA-MB-435,> 100 µM
same,TGI,HT29 colon,> 100 µM
same,TGI,SNB-19 CNS,> 100 µM
same,TGI,TK-10 renal,> 100 µM
